For the series, the system named is brain endothelial cells (RBMVEC) and astroglial cells (CTX TNA2).

Procedure: Each peptide was tested at different time points in triplicate next to an unseeded negative control (“Empty”) and quantitatively analyzed via HPLC using a calibration curve to determine the concentration of the peptide in the receiving chamber at each point in time (Figure 11). From these values, the volume of each chamber, and the respective time, a Papp permeability coefficient in cm²/s was calculated for each substance to represent its ability to cross the in vitro blood–brain barrier model.
An amount equaling 1 mg/mL TF2D-5 (A) or TF2D-5a (B) was added to an insert that was seeded and covered with endothelial and astroglial cells, representing the in vitro blood–brain barrier, or an empty insert serving as a control. After different time points, samples were taken and analyzed by quantitative HPLC analysis. Data given as mean ± SD out of three independent replicates.
Brain endothelial cells from rats and astroglial cells were used to cultivate the different sides of the porous membrane.
Brain endothelial cells from rats (RBMVEC, Cell Applications Inc., R840-05a, San Diego, CA, USA) were cultivated in Complete Classic medium (Cell Systems, Kirkland, WA, USA, 4Z0-500), and rat astroglial cells (CTX TNA2, ATCC, CRL-2006) were cultivated in Complete Classic medium (Cell Systems, Kirkland, WA, USA, 4Z0-500). The cells were allowed to grow in a humidified incubator with 5% CO2 at 37 °C and a maximum of 20 passages. The cells were passaged every 3 to 5 days, according to their confluence.
In order to set up the in vitro BBB model, the astroglial cells were seeded at a density of 600.000 cells/cm² on the outer (basolateral, “brain”) side of an insert with a porous membrane (Corning Transwell polycarbonate membrane cell culture inserts, CLS3415, 3 µM pore size) and allowed to grow/adhere overnight in the Complete Classic medium. The next day, brain endothelial cells were seeded at a density of 600.000 cells/cm² on the inner side (apical, “blood”) of the corresponding membrane. The seeded inserts were then cultivated to grow to full confluence over a period of 5 to 7 days, with the medium renewed daily. […] Prior to this, TEER (transendothelial electrical resistance values) were measured in each well to ensure the integrity of the in vitro BBB. At 0, 30, 60, 90, 120, 150, 180, and 240 min, 50 µL of the medium out of the outer chamber was taken and analyzed by HPLC. This 50 µL would then be replaced by the same amount of fresh serum-free medium to keep the fluid levels equal across both chambers. This slight dilution was factored into the following calculations. Furthermore, a dilution series of each reagent was analyzed alongside the samples as a calibration to quantify the analysis. […] The Papp values were calculated as follows (higher is better): Papp =(V/A∗C)∗(Dc/Dt)

Molecule `O=C1OC2(c3ccc(O)cc3Oc3cc(O)ccc32)c2ccccc21` [Fluorescein, reference compound] came in with a Papp permeability coefficient of 8.86 nm/s.

As for `Cn1c(=O)c2c(ncn2C)n(C)c1=O` [Caffeine, reference compound], the Papp permeability coefficient turned out to be 318 nm/s.

The values are drawn from article PMC9917023, “Stabilization of Monomeric Tau Protein by All D-Enantiomeric Peptide Ligands as Therapeutic Strategy for Alzheimer’s Disease and Other Tauopathies” (International Journal of Molecular Sciences, 2023).
